Results published in patent publication US10208046B2, “Nitrogen-containing heterocyclic compound” (Takeda Pharmaceutical Company Limited, priority 2014, dated 2019).

Experiments:
[1] = target: T1, human M1 receptor (hCHRM1) (Homo sapiens, UniProt P11229); test: Measurement of M1 receptor positive allosteric modulator (M1PAM) activity, calcium fluorescence in CHO-K1 cells; type: cell-based; conditions: for activity (%) at 10 μM: 10 μM test compound with acetylcholine at EC20, 100% = acetylcholine 1 μM, 0% = DMSO; for EC50: inflection point in the concentration-dependent curve, acetylcholine at EC20 (final 0.6-0.8 nM), CHO-K1 cells expressing human M1, Fluo-4, FLIPRtetra, read-out: IP value;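 as to EC50: potency reported as IP value in nM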
T1 construct: expressed in transfected cells
T1 sequence (P11229 1-460): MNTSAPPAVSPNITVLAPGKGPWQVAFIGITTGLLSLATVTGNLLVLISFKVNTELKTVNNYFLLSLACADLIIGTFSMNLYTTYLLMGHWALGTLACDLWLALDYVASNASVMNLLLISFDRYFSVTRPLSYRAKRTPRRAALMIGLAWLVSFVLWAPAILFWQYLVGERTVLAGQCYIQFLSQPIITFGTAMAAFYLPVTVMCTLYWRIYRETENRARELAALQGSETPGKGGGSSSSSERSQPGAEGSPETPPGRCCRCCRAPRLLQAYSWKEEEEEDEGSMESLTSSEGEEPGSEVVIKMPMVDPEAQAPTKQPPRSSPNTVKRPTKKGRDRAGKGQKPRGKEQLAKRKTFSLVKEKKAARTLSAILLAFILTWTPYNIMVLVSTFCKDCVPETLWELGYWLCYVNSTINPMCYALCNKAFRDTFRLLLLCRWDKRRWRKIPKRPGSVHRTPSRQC
Experimental: Measurement of M1 Receptor Positive Allosteric Modulator (M1PAM) Activity
The activity of a test compound in the presence of acetylcholine at EC20 concentration (final concentration 0.6-0.8 nM), which affords an action corresponding to about 20% of the maximum activity, was measured as PAM activity. The method is as follows. CHO-K1 cells stably expressing a human M1 receptor (hCHRM1) were plated on a 384-well black clear bottom plate (BD Falcon) at 5,000 cells/well, and cultured in an incubator at 37° C., 5% CO2 for 1 day. The medium in the cell plate was removed, and assay buffer A containing calcium indicator (Recording medium (DOJINDO LABORATORIES), 0.1% BSA (Wako Pure Chemical Industries, Ltd.), 2.5 μg/mL Fluo-4 AM (DOJINDO LABORATORIES), 0.08% Pluronic F127 (DOJINDO LABORATORIES), 1.25 mM probenecid (DOJINDO LABORATORIES)) was added at 30 μL/well. The cells were left standing in the incubator at 37° C., 5% CO2 for 30 min, and further left standing at room temperature for 30 min. A test compound prepared by diluting with assay buffer B (HBSS (Invitrogen), 20 mM HEPES (Invitrogen), 0.1% BSA) containing 2.4-3.2 nM acetylcholine was added at 10 μL/well, and the fluorescence was measured by FLIPRtetra (Molecular Devices) for 1 min every 1 second. With the definition that the amount of change in the fluorescence on addition of acetylcholine (final concentration 1 μM) is 100% and that on addition of DMSO instead of a test compound is 0%, the activity (%) of the test compound was calculated, and the inflection point in the concentration-dependent curve of the test compound was calculated as IP values.

[2] = system: IP1 production in hippocampi; test: Measurement of myo-inositol 1 phosphate (IP1) in rat hippocampi after oral administration; type: in vivo, male Long-Evans rats; conditions: 10 mg/kg oral, rat hippocampus IP1/protein ratio, Vehicle group as 100%
Experimental: Measurement of Myo-Inositol 1 Phosphate (IP1)
Animals used were male Long-Evans rats. They were used after acclimation for at least 1 week. Test compounds were suspended in 0.5% (w/v) aqueous methylcellulose solution, and the suspension was orally administered to the rats. After a given time, lithium chloride was dissolved in saline and subcutaneously administered into the rats. After a given time, their bilateral hippocampi were isolated from the rats, and the wet weight thereof was measured. The isolated hippocampi were homogenized with HEPES buffer, followed by centrifugation. The IP1 and protein concentrations in the supernatant were measured by IP-One HTRF(R) assay kit (Cisbio Bioassays) and BCA protein assay kit (Thermo Scientific), respectively. The level of the IP1 production was expressed as the ratio of the concentration of IP1 to that of protein. The increase rate of the IP1 production was shown as a relative value when Vehicle administration group as 100%.

Structure (SMILES): Cc1nn(C)cc1-c1ccc(CN2Cc3ncnc(OCC(C)(F)F)c3C2=O)cc1 [Example 22, 4-(2,2-difluoropropoxy)-6-(4-(1,3-dimethyl-1H-pyrazol-4-yl)benzyl)-6,7-dihydro-5H-pyrrolo[3,4-d]pyrimidin-5-one]
- activity (%) at 10 μM [1]: 100%
- EC50 [1]: 28 nM
- increase rate (% of Vehicle) [2]: 71 % of Vehicle

Structure (SMILES): CCC(F)(F)COc1ncnc2c1C(=O)N(Cc1ccc(C(=O)NC)cc1)C2 [Example 10, 4-((4-(2,2-difluorobutoxy)-5-oxo-5,7-dihydro-6H-pyrrolo[3,4-d]pyrimidin-6-yl)methyl)-N-methylbenzamide]
- activity (%) at 10 μM [1]: 103%
- EC50 [1]: 33 nM

Structure (SMILES): Cn1cc(-c2ccc(CN3Cc4ccnc(OCC(F)(F)F)c4C3=O)c(F)c2)cn1 [Example 87, 2-(2-fluoro-4-(1-methyl-1H-pyrazol-4-yl)benzyl)-4-(2,2,2-trifluoroethoxy)-1,2-dihydro-3H-pyrrolo[3,4-c]pyridin-3-one]
- activity (%) at 10 μM [1]: 101%
- EC50 [1]: 32 nM

Structure (SMILES): Cc1nn(C)cc1-c1ccc(CN2Cc3ncnc(OCC(C)(C)F)c3C2=O)cc1 [Example 5, 6-(4-(1,3-dimethyl-1H-pyrazol-4-yl)benzyl)-4-(2-fluoro-2-methylpropoxy)-6,7-dihydro-5H-pyrrolo[3,4-d]pyrimidin-5-one]
- activity (%) at 10 μM [1]: 105%
- EC50 [1]: 17 nM

Structure (SMILES): CCC(F)(F)COc1ncnc2c1C(=O)N(Cc1ccc(-c3cnn(C)c3)cc1)C2 [Example 75, 4-(2,2-difluorobutoxy)-6-(4-(1-methyl-1H-pyrazol-4-yl)benzyl)-6,7-dihydro-5H-pyrrolo[3,4-d]pyrimidin-5-one]
- activity (%) at 10 μM [1]: 98%
- EC50 [1]: 13 nM

Structure (SMILES): O=C1c2c(ccnc2OCC(F)F)CN1Cc1ccc(-c2cnn(CC(F)F)c2)cc1 [Example 61, 4-(2,2-difluoroethoxy)-2-(4-(1-(2,2-difluoroethyl)-1H-pyrazol-4-yl)benzyl)-1,2-dihydro-3H-pyrrolo[3,4-c]pyridin-3-one]
- activity (%) at 10 μM [1]: 91%
- EC50 [1]: 51 nM

Structure (SMILES): Cc1nn(C)cc1-c1ccc(CN2Cc3ccnc(OCC(C)(F)F)c3C2=O)c(F)c1 [Example 108, 4-(2,2-difluoropropoxy)-2-(4-(1,3-dimethyl-1H-pyrazol-4-yl)-2-fluorobenzyl)-1,2-dihydro-3H-pyrrolo[3,4-c]pyridin-3-one]
- activity (%) at 10 μM [1]: 94%
- EC50 [1]: 16 nM

Structure (SMILES): CCC(F)(F)COc1nccc2c1C(=O)N(Cc1ccc(-c3cnn(C(F)F)c3)cc1)C2 [Example 63, 4-(2,2-difluorobutoxy)-2-(4-(1-(difluoromethyl)-1H-pyrazol-4-yl)benzyl)-1,2-dihydro-3H-pyrrolo[3,4-c]pyridin-3-one]
- activity (%) at 10 μM [1]: 91%
- EC50 [1]: 96 nM

Structure (SMILES): Cn1cc(-c2ccc(CN3Cc4ccnc(OCCC(F)(F)F)c4C3=O)c(F)c2)nn1 [Example 16, 2-(2-fluoro-4-(1-methyl-1H-1,2,3-triazol-4-yl)benzyl)-4-(3,3,3-trifluoropropoxy)-1,2-dihydro-3H-pyrrolo[3,4-c]pyridin-3-one]
- activity (%) at 10 μM [1]: 111%
- EC50 [1]: 85 nM

Structure (SMILES): Cn1cc(-c2ccc(CN3Cc4ccnc(OCC(C)(F)F)c4C3=O)cc2)nn1 [Example 107, 4-(2,2-difluoropropoxy)-2-(4-(1-methyl-1H-1,2,3-triazol-4-yl)benzyl)-1,2-dihydro-3H-pyrrolo[3,4-c]pyridin-3-one]
- activity (%) at 10 μM [1]: 92%
- EC50 [1]: 72 nM

Structure (SMILES): CCC(F)(F)COc1ncnc2c1C(=O)N(Cc1ccc(-c3cnn(CC(F)(F)F)c3)cc1)C2 [Example 69, 4-(2,2-difluorobutoxy)-(4-(1-(2,2,2-trifluoroethyl)-1H-pyrazol-4-yl)benzyl)-6,7-dihydro-5H-pyrrolo[3,4-d]pyrimidin-5-one]
- activity (%) at 10 μM [1]: 88%
- EC50 [1]: 9.6 nM

Structure (SMILES): Cc1nn(C)cc1-c1ccc(CN2Cc3ncnc(OCC(F)(F)F)c3C2=O)cc1 [Example 39, 6-(4-(1,3-dimethyl-1H-pyrazol-4-yl)benzyl)-4-(2,2,2-trifluoroethoxy)-6,7-dihydro-5H-pyrrolo[3,4-d]pyrimidin-5-one]
- activity (%) at 10 μM [1]: 93%
- EC50 [1]: 40 nM

Structure (SMILES): Cc1nn(C)cc1-c1ccc(CN2Cc3ncnc(OCC(F)F)c3C2=O)s1 [Example 34, 4-(2,2-difluoroethoxy)-6-((5-(1,3-dimethyl-1H-pyrazol-4-yl)-2-thienyl)methyl)-6,7-dihydro-5H-pyrrolo[3,4-d]pyrimidin-5-one]
- activity (%) at 10 μM [1]: 100%
- EC50 [1]: 77 nM

Structure (SMILES): Cn1ccc(-c2ccc(CN3Cc4ncnc(OCC(F)(F)F)c4C3=O)c(F)c2)n1 [Example 9, 6-(2-fluoro-4-(1-methyl-1H-pyrazol-3-yl)benzyl)-4-(2,2,2-trifluoroethoxy)-6,7-dihydro-5H-pyrrolo[3,4-d]pyrimidin-5-one]
- activity (%) at 10 μM [1]: 102%
- EC50 [1]: 77 nM

Structure (SMILES): CCn1cc(-c2ccc(CN3Cc4ncnc(OCC(C)(F)F)c4C3=O)cc2)cn1 [Example 1, 4-(2,2-difluoropropoxy)-6-(4-(1-ethyl-1H-pyrazol-4-yl)benzyl)-6,7-dihydro-5H-pyrrolo[3,4-d]pyrimidin-5-one]
- activity (%) at 10 μM [1]: 91%
- EC50 [1]: 17 nM

Structure (SMILES): CCn1cc(-c2ccc(CN3Cc4ncnc(OCC(F)(F)CC)c4C3=O)s2)cn1 [Example 30, 4-(2,2-difluorobutoxy)-6-((5-(1-ethyl-1H-pyrazol-4-yl)-2-thienyl)methyl)-6,7-dihydro-5H-pyrrolo[3,4-d]pyrimidin-5-one]
- activity (%) at 10 μM [1]: 103%
- EC50 [1]: 96 nM

Structure (SMILES): Cn1cc(-c2ccc(CN3Cc4ccnc(OCC(C)(F)F)c4C3=O)c(F)c2)nn1 [Example 106, 4-(2,2-difluoropropoxy)-2-(2-fluoro-4-(1-methyl-1H-1,2,3-triazol-4-yl)benzyl)-1,2-dihydro-3H-pyrrolo[3,4-c]pyridin-3-one]
- activity (%) at 10 μM [1]: 90%
- EC50 [1]: 29 nM

Structure (SMILES): O=C1c2c(ccnc2OCC(F)F)CN1Cc1ccc(-c2cnn(CC(F)(F)F)c2)cc1F [Example 57]
- activity (%) at 10 μM [1]: 101%
- EC50 [1]: 18 nM

Structure (SMILES): CC(F)(F)COc1nccc2c1C(=O)N(Cc1ccc(-c3cnn(CC(F)F)c3)cc1)C2 [Example 13, 2-(4-(1-(2,2-difluoroethyl)-1H-pyrazol-4-yl)benzyl)-4-(2,2-difluoropropoxy)-1,2-dihydro-3H-pyrrolo[3,4-c]pyridin-3-one]
- activity (%) at 10 μM [1]: 100%
- EC50 [1]: 55 nM

Structure (SMILES): CC(F)(F)COc1nccc2c1C(=O)N(Cc1ccc(-c3ccoc3)cc1F)C2 [Example 21, 4-(2,2-difluoropropoxy)-2-(2-fluoro-4-(3-furyl)benzyl)-1,2-dihydro-3H-pyrrolo[3,4-c]pyridin-3-one]
- activity (%) at 10 μM [1]: 101%
- EC50 [1]: 290 nM

Structure (SMILES): CCC(F)(F)COc1ncnc2c1C(=O)N(Cc1ccc(-c3cn(C)nc3C)cc1)C2 [Example 8, 4-(2,2-difluorobutoxy)-6-(4-(1,3-dimethyl-1H-pyrazol-4-yl)benzyl)-6,7-dihydro-5H-pyrrolo[3,4-d]pyrimidin-5-one]
- activity (%) at 10 μM [1]: 109%
- EC50 [1]: 23 nM

Structure (SMILES): CC(F)(F)COc1nccc2c1C(=O)N(Cc1ccc(-c3cnn(C4CC4)c3)cc1)C2 [Example 17, 2-(4-(1-cyclopropyl-1H-pyrazol-4-yl)benzyl)-4-(2,2-difluoropropoxy)-1,2-dihydro-3H-pyrrolo[3,4-c]pyridin-3-one]
- activity (%) at 10 μM [1]: 99%
- EC50 [1]: 95 nM
